{
  "source": "paper PMC2804221",
  "about": "(The Journal of Biological Chemistry, 2009)",
  "origin": "cited, not measured here",
  "key": {"[1]": {"system": "isolated ECD of GLP-1R"}, "[2]": {"system": "GLP-1R"}},
  "data": [
    {"substance": "Exendin-4(9–39): truncated form of exendin-4, and a competitive antagonist", "values": [
      {"measurement": "IC50", "setting": "[1]", "value": 6, "unit": "nM"},
      {"measurement": "mode of action at GLP-1R", "setting": "[2]", "value": "competitive antagonist"}
    ]}
  ]
}
